Laboratory results taken from US10717720B2, “Modified compound of andrographolide” (Heilongjiang Zhenbaodao Pharmaceutical Co., Ltd., priority 2015, dated 2020).
Where two headings read alike, the source gives them in different places.

Tested on: LPS-induced IL-6 release level from THP-1 cells
Assay: Test of IL-6 release from THP-1 cells (LPS-induced, IL-6 in supernatant detected by CBA)
Type: cell-based
Conditions: Homo sapiens, read-out: Inhibition rate @ 10 uM
Description: Test of IL-6 Release from THP-1 Cells
The inhibitory effect of the compound on LPS-induced IL-6 release level from THP-1 cells was evaluated by measuring the level of IL-6 in the cell culture supernatant.
4 ul was taken from each above solution and added to lml of culture solution to make 120 uM, 40 uM, 12 uM, 4 uM. 50 ul per well was taken and added to wells with cells to give final concentrations of 30 uM, 10 uM, 3 uM, and 1 uM, respectively. Dexamethasone was added as a positive drug into an individual cell well with a final concentration of 100 nM. • c) Cell stimulation
The LPS 1 mg/ml solution was diluted to 800 ng/ml with the culture solution and added to the cell culture wells at 50 ul/well. • d) Cell incubation and detection
The cell culture plate was placed in a 37° C. incubator, and the supernatant was collected after culturing for 24 hours. The level of IL-6 in the supernatant was detected by CBA.

[1] = inflammatory factor IL-6 detected by CBA, compound 10 uM, LPS-stimulated THP-1 cells, supernatant after 24 hours

SMILES | inhibition at 10 µM [1] [%] | inhibition at 10 µM (THP-1, 24 h) [%]
C=C1CCC2[C@]3(C)CO[C@@H](C4CCCC4)O[C@@H]3CC[C@@]2(C)[C@@H]1CCN1CCC(CO)CC1 (stereo partly drawn) [Compound 002, (1-(2-((3R,4aR,6aS,7R,10bR)-3-cyclopentyl-6a,10b-dimethyl-8-methylene-decahydro-1H-naphtho[2,1-d][1,3]dioxin-7-yl)ethyl)piperidin-4-yl)methanol] | < 30 | 
C=C1CCC2[C@]3(C)CO[C@@H](C4CCCC4)O[C@@H]3CC[C@@]2(C)[C@@H]1CCN1CCC(OC)C1 (some centres unmarked) [Compound 116] | 30 to 60 | 
C=C1CCC2[C@]3(C)CO[C@@H](C4CCCC4)O[C@@H]3CC[C@@]2(C)[C@@H]1CCN1CCOCC1 (stereo partly drawn) [Compound 123, 4-(2-((3R,4aR,6aS,7R,10bR)-3-cyclopentyl-6a,10b-dimethyl-8-methylenedecahydro-1H-naphtho[2,1-d][1,3]dioxin-7-yl)ethyl)morpholine] | < 30 | 
C=C1CCC2[C@]3(C)CO[C@@H](c4ccc(F)c(F)c4)O[C@@H]3CC[C@@]2(C)[C@@H]1CCN1CCC(CO)CC1 (stereo partly drawn) [Compound 130, (1-(2-((3R,4aR,6aS,7R,10bR)-3-(3,4-difluorophenyl)-6a,10b-dimethyl-8-methylenedecahydro-1H-naphtho[2,1-d][1,3]dioxin-7-yl)ethyl)piperidin-4-yl)methanol] | < 30 | 
C=C1CCC2[C@]3(C)CO[C@@H](C4CCCC4)O[C@@H]3CC[C@@]2(C)[C@@H]1CCN1CCC[C@H]1C(=O)OC (some centres unmarked) [Compound 147] | < 30 | 
C=C1CCC2[C@]3(C)CO[C@@H](C4CCCC4)O[C@@H]3CC[C@@]2(C)[C@@H]1CCN1CC[C@H](NC(C)=O)C1 (stereo partly drawn) [Compound 149, N-((3 S)-1-(2-((3R,4aR,6aS,7R,10bR)-3-cyclopentyl-6a,10b-dimethyl-8-methylenedecahydro-1H-naphtho[2,1-d][1,3]dioxain-7-yl)ethyl)pyrrolidin-3-yl)acetamide] | 30 to 60 | 
C=C1CCC2[C@]3(C)CO[C@@H](C4CCCC4)O[C@@H]3CC[C@@]2(C)[C@@H]1CCN1CCC(N(CC)CC)CC1 (stereo partly drawn) [Compound 150, 1-(2-((4aR,6aS,7R,10bR)-3-cyclopentyl-6a,10b-dimethyl-8-methylene-decahydro-1H-naphtho[2,1-d][1,3]dioxin-7-yl)ethyl)-N,N-diethylpiperidin-4-amine] | 30 to 60 | 
C=C1CCC2[C@]3(C)CO[C@@H](C4CCCC4)O[C@@H]3CC[C@@]2(C)[C@@H]1CCN1CCC(N2CCCC2)CC1 (stereo partly drawn) [Compound 160, 1-(2-((3R,4aR,6aS,7R,10bR)-3-cyclopentyl-6a,10b-dimethyl-8-methylene-decahydro-1H-naphtho[2,1-d][1,3]dioxin-7-yl)ethyl)-4-(pyrrolidin-1-yl)piperidine] | > 60 | 
C=C1CCC2[C@]3(C)CO[C@@H](C4CCCC4)O[C@@H]3CC[C@@]2(C)[C@@H]1CCN1CCCC1C(=O)O (stereo partly drawn) [Compound 163, 1-(2-((3R,4aR,6aS,7R,10bR)-3-cyclopentyl-6a,10b-dimethyl-8-methylenedecahydro-1H-naphtho[2,1-d][1,3]dioxin-7-yl)ethyl)pyrrolidine-2-carboxylic acid] | > 60 | 
C=C1CCC2[C@]3(C)CO[C@@H](C4CCCC4)O[C@@H]3CC[C@@]2(C)[C@@H]1CCN1CCC2(CCN(C)CC2)C1 (some centres unmarked) [Compound 181] | < 30 | 
C=C1CCC2[C@]3(C)CO[C@@H](C4CCCC4)O[C@@H]3CC[C@@]2(C)[C@@H]1CCN(CCO)CCO (stereo partly drawn) [Compound 191, 3-((2-((3R,4aR,6aS,7R,10bR)-3-cyclopentyl-6a,10b-dimethyl-8-methylene-decahydro-1H-naphtho[2,1-d][1,3]dioxin-7-yl)ethyl)amino)N,N-diethanolamine] | < 30 | 
C=C1CCC2[C@]3(C)CO[C@@H](C4CCCC4)O[C@@H]3CC[C@@]2(C)[C@@H]1CCN1CCOC1=O (stereo partly drawn) [Compound 196, 3-(2-((3R,4aR,6aS,7R,10bR)-3-cyclopentyl-6a,10b-dimethyl-8-decahydromethylene-1H-naphtho[2,1-d][1,3]dioxin-7-yl)ethyl)oxazolidin-2-one] | 30 to 60 | 
C=C1CCC2[C@]3(C)CO[C@@H](C4CCCC4)O[C@@H]3CC[C@@]2(C)[C@@H]1CCNc1cnoc1 (stereo partly drawn) [Compound 207, N-(2-((3R,4aR,6aS,7R,10bR)-3-cyclopentyl-6a,10b-dimethyl-8-decahydromethylene-1H-naphtho[2,1-d][1,3]dioxin-7-yl)ethyl)isoxazol-4-amine] | 30 to 60 | 
C=C1CCC2[C@]3(C)CO[C@@H](c4ccc(F)c(F)c4)O[C@@H]3CC[C@@]2(C)[C@@H]1CCN1CCN(C)C1=O (stereo partly drawn) [Compound 212, 3-(2-((3R,4aR,6aS,7R,10bR)-3-(3,4-difluorophenyl)-6a,10b-dimethyl-8-decahydromethylene-1H-naphtho[2,1-d][1,3]dioxin-7-yl)ethyl)-1-methyltetrahydroimidazol-2-one] | > 60 | 
C=C1CCC2[C@]3(C)CO[C@@H](c4ccc(F)c(F)c4)O[C@@H]3CC[C@@]2(C)[C@@H]1CCN1C(=O)CCC1=O (stereo partly drawn) [Compound 214, 1-(2-((3R,4aR,6aS,7R,10bR)-3-(3,4-difluorophenyl)-6a, 10b-dimethyl-8-methylenedecahydro-1H-naphtho[2,1-d][1,3]dioxin-7-yl)ethyl)pyrrolidine-2,5-dione] | > 60 | 
C=C1CCC2[C@]3(C)CO[C@@H](c4ccc(F)c(F)c4)O[C@@H]3CC[C@@]2(C)[C@@H]1CCN1C(=O)COC1=O (stereo partly drawn) [Compound 215, 3-(2-((3R,4aR,6aS,7R,10bR)-3-(3,4-difluorophenyl)-6a, 10b-dimethyl-8-methylenedecahydro-1H-naphtho[2,1-d][1,3]dioxin-7-yl)ethyl)oxazolidine-2,4-dione] | < 30 | 
C=C1CCC2[C@]3(C)CO[C@@H](c4ccc(F)c(F)c4)O[C@@H]3CC[C@@]2(C)[C@@H]1CCN1C(=O)CNC1=O (stereo partly drawn) [Compound 230, 3-(2-((3R,4aR,6aS,7R,10bR)-3-(3,4-difluorophenyl)-6a,10b-dimethyl-8-methylenedecahydro-1H-naphtho[2,1-d][1,3]dioxin-7-yl)ethyl)tetrahydroimidazole-2,4-dione] | > 60 | 
C=C1CCC2[C@]3(C)CO[C@@H](C4CCCC4)O[C@@H]3CC[C@@]2(C)[C@@H]1CCN1CCC(C(=O)O)CC1 (stereo partly drawn) [Compound 256, 1-(2-((3R,4aR,6aS,7R,10bR)-3-cyclopentyl-6a,10b-dimethyl-8-methylene-decahydro-1H-naphtho[2,1-d][1,3]dioxin-7-yl)ethyl)piperidin-4-carboxylic acid] | < 30 | 
C=C1CCC2[C@](C)(CO)[C@H](O)CC[C@@]2(C)[C@@H]1CCN1CCC(CO)CC1 (some centres unmarked) [Compound 265] | < 30 | 
C=C1CCC2[C@]3(C)CO[C@@H](C4CCCC4)O[C@@H]3CC[C@@]2(C)[C@@H]1CCOCCCN(C)C (stereo partly drawn) [Compound 281, 3-(2-((3R,4aR,6aS,7R,10bR)-3-cyclopentyl-6a,10b-dimethyl-8-dihydromethylenedecahydro-1H-naphtho[2,1-d][1,3]dioxin-7-yl)ethoxy)-N,N-dimethylpropan-1-amine] | 30 to 60 | 
C=C1CCC2[C@]3(C)CO[C@@H](C4CCCC4)O[C@@H]3CC[C@@]2(C)[C@@H]1CCN(CCO)CCCN(C)C (stereo partly drawn) [Compound 284, 2-((2-((3R,4aR,6aS,7R,10bR)-3-cyclopentyl-6a, 10b-dimethyl-8-methylene-decahydro-1H-naphtho[2,1-d][1,3]dioxin-7-yl)ethyl)(3-(dimethylamino)propyl)amino)ethanol] | 30 to 60 | 
C=C1CCC2[C@]3(C)CO[C@@H](C4CCCC4)O[C@@H]3CC[C@@]2(C)[C@@H]1CCOc1cnn(C)c1 (stereo partly drawn) [Compound 289, 4-(2-((3R,4aR,6aS,7R,10bR)-3-cyclopentyl-6a,10b-dimethyl-8-dihydromethylenedecahydro-1H-naphtho[2,1-d][1,3]dioxin-7-yl)ethoxy)-2-methyl-1H-pyrazole] | > 60 | 
C=C1CCC2[C@]3(C)CO[C@@H](C4CCCC4)O[C@@H]3CC[C@@]2(C)[C@@H]1CCOc1ccncc1 (stereo partly drawn) [Compound 297, 4-(2-((3R,4aR,6aS,7R,10bR)-3-cyclopentyl-6a,10b-dimethyl-8-dihydromethylenedecahydro-1H-naphtho[2,1-d][1,3]dioxin-7-yl)ethoxy)pyridine] | > 60 | 
C=C1CCC2[C@]3(C)CO[C@@H](C4CCCC4)O[C@@H]3CC[C@@]2(C)[C@@H]1CCOc1cccnc1 (stereo partly drawn) [Compound 310, 3-(2-((3R,4aR,6aS,7R,10bR)-3-cyclopentyl-6a,10b-dimethyl-8-dihydromethylenedecahydro-1H-naphtho[2,1-d][1,3]dioxin-7-yl)ethoxy)-pyridine] | > 60 | 
C=C1CCC2[C@]3(C)CO[C@@H](C4CCCC4)O[C@@H]3CC[C@@]2(C)[C@@H]1CCOc1ccncn1 (stereo partly drawn) [Compound 312, 4-(2-((3R,4aR,6aS,7R,10bR)-3-cyclopentyl-6a,10b-dimethyl-8-dihydromethylenedecahydro-1H-naphtho[2,1-d][1,3]dioxin-7-yl)ethoxy)pyrimidine] |  | < 30
C=C1CCC2[C@]3(C)CO[C@@H](C4CCCC4)O[C@@H]3CC[C@@]2(C)[C@@H]1CCOC1CN(C(C)C)C1 (stereo partly drawn) [Compound 313, 3-(2-((3R,4aR,6aS,7R,10bR)-3-cyclopentyl-6a,10b-dimethyl-8-dihydromethylenedecahydro-1H-naphtho[2,1-d][1,3]dioxin-7-yl)ethoxy)-1-isopropyl azetidine] |  | 30 to 60
